Data from patent publication US10836791B2, “Compounds” (DSM IP ASSETS B.V., priority 2016, dated 2020).
Square brackets hold non-standard residues; d marks the D form. * marks the point of attachment. Palmitoyl = CCCCCCCCCCCCCCCC(=O)*; Octanoyl = CCCCCCCC(=O)*; Hexanoyl = CCCCCC(=O)*

Tested on: Normal human epidermal melanocytes, lightly pigmented
Experiment: Melanin inhibition in L-tyrosine-stimulated melanocytes (melanogenese assay)
Type: cell-based
Conditions: L-tyrosine 1 mM, 240 hours incubation, inhibition compared to stimulated control
Procedure: Melanocytes (Normal human epidermal melanocytes, lightly pigmented, 8th passage) were seeded in 24 well plates and cultured for 24 hours in culture medium (M254 supplemented with PMA free HMGS-2, Insulin 5 μg/ml, Penicilline 50 U/ml-Streptomycine 50 μg/ml Gentamycine 25 μg/ml) at 37° C., 5% CO2. The medium was then replaced by culture medium containing the test compounds or the reference (lipoic acid at 5 μg/ml) in presence of L-tyrosine (1 mM). The cells were then incubated for 240 hours with 2 renewals of culture medium containing the test compounds or the reference in presence of L-tyrosine after 96 and 168 hours of incubation. A non-stimulated and a stimulated control were performed in parallel. All experimental conditions were performed in n=3, except for control conditions in n=6. At the end of incubation, the culture supernatants were removed and the melanin was extracted by cell lysis using a 0.5 N NaOH solution. The optical density (OD) of each experimental point was measured at 405 nm and melanin quantity was calculated using melanin standards (standard curve from 0.39 to 100 μg/ml melanin). Results were expressed in μg/ml of melanin and in percentage of inhibition compared to stimulated control.

Row | Substance | Melanin inhibition [%] (1 μM test compound) | Melanin inhibition [%] (10 μM test compound)
1 | Palmitoyl-[dW]-Met-Leu-NH2 [Ref-1] | 25 | 43
2 | Hexanoyl-[dW]-Arg-Leu-NH2 [Ref-2] | 18 | 8
3 | H-[dW]-Arg-Leu-NH2 [Ref-5] | −3 | 14
4 | Octanoyl-[dW]-Arg-Leu-NH2 [Ref-4] | 13 | –
5 | Palmitoyl-D-Trp-Arg-ATMPA-NH2 [Ref-6] | −3 | −12
6 | Palmitoyl-D-Trp-NLe-Leu-NH2 [Ref-3] | 13 | –
